Among the data in ChEMBL document CHEMBL4725362, “Discovery of Novel Inhibitors of a Critical Brain Enzyme Using a Homology Model and a Deep Convolutional Neural Network” (J Med Chem, 2020) are IC50 values, retold here.

SMILES strings stand for the structures.

The experiment can be described thus: Inhibition of N-terminal MBP tagged and C-terminal 6x-His-tagged ANAT (unknown origin) expressed in Escherichia coli BL21(DE3) assessed as reduction in coenzyme A production using DTNB incubated up to 30 mins in presence of 0.1%Triton X-100. Set-up: species or system Homo sapiens.
A word on the IC50: it is the concentration that gives 50% inhibition. As to `CCOC(=O)c1sc(NC(=O)COC(=O)Cn2c(=O)cnc3ccccc32)cc1C`, the 50% inhibitory concentration (IC50) was 6.1 µM. Take `Nc1cc(N)nc(SCc2ncc(-c3ccc(F)cc3)o2)n1`: the IC50 came to 4.82 µM. Take `Cc1c(C(=O)O)sc2[nH]c(=O)cc(CSc3nnc(C4CC4)[nH]3)c12`: the IC50 was 1.25 µM. Regarding `Cc1nnc(SCc2nnc(-c3c(-c4ccccc4)noc3C)o2)s1`, the IC50 turned out to be 2.71 µM.
